Results reported in patent US20110039721A1, “METHOD FOR PREDICTION ABOUT CARCINOGENICITY OF SUBSTANCE IN RODENT” (Chemicals Evaluation and Research Institute, priority 2007, published 2011).

Key:
[1] = tested on: mRNA expressed from the genes (A) to (D) in rat liver; experiment: Behavior of genes (mRNA expression level, oligo-DNA microarray) in rat liver after 28-day oral administration; type: in vivo; conditions: for Behavior of gene caused by administration of chemical substance, Gene No. 4846 / Behavior of gene caused by administration of chemical substance, Gene No. 2026 / Behavior of gene caused by administration of chemical substance, Gene No. 4218 / Behavior of gene caused by administration of chemical substance, Gene No. 6182 / Behavior of gene caused by administration of chemical substance, Gene No. 5600: gene group (A); for Behavior of gene caused by administration of chemical substance, Gene No. 4846: Unigene No. Rn.144554; for Behavior of gene caused by administration of chemical substance, Gene No. 2026 / Behavior of gene caused by administration of chemical substance, Gene No. 4218: Unigene No. Rn.167075; for Behavior of gene caused by administration of chemical substance, Gene No. 6182: Unigene No. Rn.5834; for Behavior of gene caused by administration of chemical substance, Gene No. 5600: Unigene No. Rn.9836; for Behavior of gene caused by administration of chemical substance, Gene No. 1494 / Behavior of gene caused by administration of chemical substance, Gene No. 2045 / Behavior of gene caused by administration of chemical substance, Gene No. 2203: gene group (B); for Behavior of gene caused by administration of chemical substance, Gene No. 1494: Unigene No. Rn.1430; for Behavior of gene caused by administration of chemical substance, Gene No. 2045: Unigene No. Rn.19329; for Behavior of gene caused by administration of chemical substance, Gene No. 2203: Unigene No. Rn.21240; for Behavior of gene caused by administration of chemical substance, Gene No. 533 / Behavior of gene caused by administration of chemical substance, Gene No. 725 / Behavior of gene caused by administration of chemical substance, Gene No. 1163 / Behavior of gene caused by administration of chemical substance, Gene No. 4973 / Behavior of gene caused by administration of chemical substance, Gene No. 4095 / Behavior of gene caused by administration of chemical substance, Gene No. 1334 / Behavior of gene caused by administration of chemical substance, Gene No. 6620 / Behavior of gene caused by administration of chemical substance, Gene No. 6303 / Behavior of gene caused by administration of chemical substance, Gene No. 5878 / Behavior of gene caused by administration of chemical substance, Gene No. 1131 / Behavior of gene caused by administration of chemical substance, Gene No. 1562 / Behavior of gene caused by administration of chemical substance, Gene No. 1741 / Behavior of gene caused by administration of chemical substance, Gene No. 893 / Behavior of gene caused by administration of chemical substance, Gene No. 6026 / Behavior of gene caused by administration of chemical substance, Gene No. 154 / Behavior of gene caused by administration of chemical substance, Gene No. 1993 / Behavior of gene caused by administration of chemical substance, Gene No. 813 / Behavior of gene caused by administration of chemical substance, Gene No. 2494 / Behavior of gene caused by administration of chemical substance, Gene No. 2546 / Behavior of gene caused by administration of chemical substance, Gene No. 3776 / Behavior of gene caused by administration of chemical substance, Gene No. 3929 / Behavior of gene caused by administration of chemical substance, Gene No. 1119 / Behavior of gene caused by administration of chemical substance, Gene No. 6742 / Behavior of gene caused by administration of chemical substance, Gene No. 5634: gene group (C); for Behavior of gene caused by administration of chemical substance, Gene No. 533: Unigene No. Rn.106184; for Behavior of gene caused by administration of chemical substance, Gene No. 725: Unigene No. Rn.108075; for Behavior of gene caused by administration of chemical substance, Gene No. 1163: Unigene No. Rn.11766; for Behavior of gene caused by administration of chemical substance, Gene No. 4973: Unigene No. Rn.118529; for Behavior of gene caused by administration of chemical substance, Gene No. 4095: Unigene No. Rn.119024; for Behavior of gene caused by administration of chemical substance, Gene No. 1334 / Behavior of gene caused by administration of chemical substance, Gene No. 6620: Unigene No. Rn.120914; for Behavior of gene caused by administration of chemical substance, Gene No. 6303: Unigene No. Rn.123063; for Behavior of gene caused by administration of chemical substance, Gene No. 5878: Unigene No. Rn.143213; for Behavior of gene caused by administration of chemical substance, Gene No. 1131: Unigene No. Rn.144946; for Behavior of gene caused by administration of chemical substance, Gene No. 1562: Unigene No. Rn.14744; for Behavior of gene caused by administration of chemical substance, Gene No. 1741: Unigene No. Rn.1647; for Behavior of gene caused by administration of chemical substance, Gene No. 893: Unigene No. Rn.164817; for Behavior of gene caused by administration of chemical substance, Gene No. 6026: Unigene No. Rn.167685; for Behavior of gene caused by administration of chemical substance, Gene No. 154: Unigene No. Rn.185941; for Behavior of gene caused by administration of chemical substance, Gene No. 1993: Unigene No. Rn.18728; for Behavior of gene caused by administration of chemical substance, Gene No. 813: Unigene No. Rn.201760; for Behavior of gene caused by administration of chemical substance, Gene No. 2494: Unigene No. Rn.23969; for Behavior of gene caused by administration of chemical substance, Gene No. 2546: Unigene No. Rn.24561; for Behavior of gene caused by administration of chemical substance, Gene No. 3776: Unigene No. Rn.43232; for Behavior of gene caused by administration of chemical substance, Gene No. 3929: Unigene No. Rn.4620; for Behavior of gene caused by administration of chemical substance, Gene No. 1119: Unigene No. Rn.9757; for Behavior of gene caused by administration of chemical substance, Gene No. 6742: Unigene No. Rn.9779; for Behavior of gene caused by administration of chemical substance, Gene No. 5634: Unigene No. Rn.9862; for Behavior of gene caused by administration of chemical substance, Gene No. 5726: gene group (D), Unigene No. Rn.9939
Procedure, shortened: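 Male F344 SPF rats, 5 weeks old, four per group, dosed by oral gavage once daily for 28 days with test chemical or matched-volume solvent. Liver total RNA profiled on oligo-DNA microarray. Change ≥1.5-fold or ≤1/1.5 versus vehicle counted as significant if its direction matched that seen with other carcinogens.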

liver = conditions: in vivo; cited from earlier work
rodent = conditions: in vivo; cited from earlier work

| SMILES | Behavior of gene caused by administration of chemical substance, Gene No. 4846 [1] | Behavior of gene caused by administration of chemical substance, Gene No. 2026 [1] | Behavior of gene caused by administration of chemical substance, Gene No. 4218 [1] | Behavior of gene caused by administration of chemical substance, Gene No. 6182 [1] | Behavior of gene caused by administration of chemical substance, Gene No. 5600 [1] | Behavior of gene caused by administration of chemical substance, Gene No. 1494 [1] | Behavior of gene caused by administration of chemical substance, Gene No. 2045 [1] | Behavior of gene caused by administration of chemical substance, Gene No. 2203 [1] | Behavior of gene caused by administration of chemical substance, Gene No. 533 [1] | Behavior of gene caused by administration of chemical substance, Gene No. 725 [1] | Behavior of gene caused by administration of chemical substance, Gene No. 1163 [1] | Behavior of gene caused by administration of chemical substance, Gene No. 4973 [1] | Behavior of gene caused by administration of chemical substance, Gene No. 4095 [1] | Behavior of gene caused by administration of chemical substance, Gene No. 1334 [1] | Behavior of gene caused by administration of chemical substance, Gene No. 6620 [1] | Behavior of gene caused by administration of chemical substance, Gene No. 6303 [1] | Behavior of gene caused by administration of chemical substance, Gene No. 5878 [1] | Behavior of gene caused by administration of chemical substance, Gene No. 1131 [1] | Liver carcinogenicity (liver) | Carcinogenicity (rodent) | other results |
| --- | --- | --- | --- | --- | --- | --- | --- | --- | --- | --- | --- | --- | --- | --- | --- | --- | --- | --- | --- | --- | --- |
| CC(O)CCl (stereo not shown) [TS079, 1-Chloro-2-propanol] | − | − | − | + | − | − | + | + | − | − | − | − | − | − | − | − | − | − | Cr− | C− | Behavior of gene caused by administration of chemical substance, Gene No. 1562 [1]: −; Behavior of gene caused by administration of chemical substance, Gene No. 1741 [1]: −; Behavior of gene caused by administration of chemical substance, Gene No. 893 [1]: −; Behavior of gene caused by administration of chemical substance, Gene No. 6026 [1]: −; Behavior of gene caused by administration of chemical substance, Gene No. 154 [1]: −; Behavior of gene caused by administration of chemical substance, Gene No. 1993 [1]: −; Behavior of gene caused by administration of chemical substance, Gene No. 813 [1]: −; Behavior of gene caused by administration of chemical substance, Gene No. 2494 [1]: −; Behavior of gene caused by administration of chemical substance, Gene No. 2546 [1]: −; Behavior of gene caused by administration of chemical substance, Gene No. 3776 [1]: −; Behavior of gene caused by administration of chemical substance, Gene No. 3929 [1]: −; Behavior of gene caused by administration of chemical substance, Gene No. 1119 [1]: −; Behavior of gene caused by administration of chemical substance, Gene No. 6742 [1]: −; Behavior of gene caused by administration of chemical substance, Gene No. 5634 [1]: −; Behavior of gene caused by administration of chemical substance, Gene No. 5726 [1]: + |
| O=[N+]([O-])c1cccc2ccccc12 [TS083, 1-Nitronaphthalene] | − | + | − | − | − | + | − | − | + | + | − | + | + | + | + | + | − | − | Cr− | C− | Behavior of gene caused by administration of chemical substance, Gene No. 1562 [1]: +; Behavior of gene caused by administration of chemical substance, Gene No. 1741 [1]: +; Behavior of gene caused by administration of chemical substance, Gene No. 893 [1]: +; Behavior of gene caused by administration of chemical substance, Gene No. 6026 [1]: +; Behavior of gene caused by administration of chemical substance, Gene No. 154 [1]: +; Behavior of gene caused by administration of chemical substance, Gene No. 1993 [1]: +; Behavior of gene caused by administration of chemical substance, Gene No. 813 [1]: +; Behavior of gene caused by administration of chemical substance, Gene No. 2494 [1]: −; Behavior of gene caused by administration of chemical substance, Gene No. 2546 [1]: +; Behavior of gene caused by administration of chemical substance, Gene No. 3776 [1]: +; Behavior of gene caused by administration of chemical substance, Gene No. 3929 [1]: +; Behavior of gene caused by administration of chemical substance, Gene No. 1119 [1]: +; Behavior of gene caused by administration of chemical substance, Gene No. 6742 [1]: +; Behavior of gene caused by administration of chemical substance, Gene No. 5634 [1]: −; Behavior of gene caused by administration of chemical substance, Gene No. 5726 [1]: − |
| O=P(OCCCl)(OCCCl)OCCCl [TS088, Tris(2-chloroethyl)phosphate] |  |  |  |  |  |  |  |  |  |  |  |  |  |  |  |  |  |  | Cr− | C+ | Behavior of gene caused by administration of chemical substance ([1]; rat, in vivo): − and + |
